Assay results as given in PMC10541198, “Specific quinone reductase 2 inhibitors reduce metabolic burden and reverse Alzheimer’s disease phenotype in mice” (The Journal of Clinical Investigation, 2023).
pEC50: −log10 of the molar value. Values joined by “and” are separate entries in the source; they are usually repeats but may differ in a detail not shown here. Identical values can stand only once.

Tests used:
Assay type in all cases: cell-based
HEK293 cells = assay: XTT cell viability assay; settings: in % (unit assumed)
Description: (§1) To establish direct target engagement and cell membrane permeability, a cellular thermal shift assay (CETSA) was carried out, using leading QR2is YB’s-537, 800, and 808. Following a 1 hour preincubation with 5 μM of the QR2is or vehicle, thermal aggregation curves (Taggs) of QR2 expressed in HEK293T were measured in increasing temperatures. All QR2is increased QR2 thermal stability compared with vehicle (Supplemental Figure 2A). Based on the Tagg curves we selected 73°C for isothermal dose-response fingerprint (IDTRF) experiments (Supplemental Figure 2B). The ITDRF allowed the relative quantification of the binding of each of the QR2is to QR2, measured as the EC50 (Figure 3A). […] We evaluated the safety of the QR2is using cell toxicity and viability assays. […] Cell viability was assessed by XTT assay in HEK239T cells, using a dose response, with 3- or 24-hour incubations of the leading QR2is. No sign of toxicity was seen (Figure 3C). Next, we wanted to assess if, similar to QR2 KO, QR2is can reduce cellular ROS in HCT116 cells and see whether any observable effect is occluded in QR2Δ cells. […] We then assessed WT HCT116 cells by immunoblot (Supplemental Figure 2, C and D), after being treated with YB-800 (2 μM) for 4 consecutive days.
(§2) H2DCFDA ROS assay was carried out according to established protocols, with some adjustment (Supplemental Methods) ([6]). Cell toxicity was measured via ATP depletion (CellTiter Glo, Promega) in THLE-2 cells (ATCC, CRL-2706), following 72 hours of exposure to the test compounds, and cell viability was assessed using XTT assay (Biological Industries) according to manufacturers protocols. CETSA was performed as previously described ([53]) with some modifications, using QR2 (Santa Cruz, sc-271665) and SOD1 (Santa Cruz, sc-17767) antibodies. SDS-PAGE and immunoblot imaging were carried out as previously described ([55]), using Tubulin (Sigma-Aldrich, SAB4500087), QR2 (Santa Cruz, sc-271665), NDUFA9 (AbCam, ab14713) and CD73 (Cell Signaling Technology, D7F9A) antibodies. […]
(§3) HEK293FT cells were cultured with penicillin- streptomycin antibiotics in Invitrogen DMEM (Thermo
(§4) Fisher Scientific) with 10% fetal bovine serum a nd L -glutamine, and grown to 80-90% confluence in 100
mm plates, while being passaged every 2–3 d. For the XTT assay (Biological Industries), cells were then
collected, centrifuged, and resuspended in fresh Minimum Essential Medium, and seeded at 50,000
cells/well in 96-well, poly- L-lysine-coated Nunc black, clear flat-bottomed plates (Thermo Fisher
Scientific). The next day, the cells were treated with increasing doses of QR2 inhibitors or vehicle f or 3 h,
and the XTT assay was then carried out as per the manufacturer’s instructions.
(§5) Cellular The rm a l Shift Assay (CETSA) […]
(§6) 17767). Analysis of the results wer e done in accordance to Jafari et a l .( 63) us i ng GraphPad Pr i sm software.

QR2 expressed in HEK293T = molecular target: T1, QR2 expressed in HEK293T (Homo sapiens, UniProt P16083); assay: Cellular thermal shift assay (CETSA; Tagg curves and ITDRF); settings: 73°C; for pEC50: n = 3, read-out: EC50, isothermal dose-response of QR2 stabilization; for QR2 stabilization signal, ITDRF (replicates): log[Inhibitor]
T1 construct: endogenous in cells; host or cells: HEK293T
T1 sequence (P16083 1-231): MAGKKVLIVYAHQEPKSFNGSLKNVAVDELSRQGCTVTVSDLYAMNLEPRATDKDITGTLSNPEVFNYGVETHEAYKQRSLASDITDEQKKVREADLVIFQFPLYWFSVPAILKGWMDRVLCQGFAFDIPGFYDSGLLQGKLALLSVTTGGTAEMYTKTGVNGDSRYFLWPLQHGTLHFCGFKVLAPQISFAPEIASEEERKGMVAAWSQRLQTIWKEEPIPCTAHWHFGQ
Description: as §1, §2, §3, §4
mm plates, while being passaged every 2–3 d. […]
Cellular The rm a l Shift Assay (CETSA)
The CETSA assay was performed as described(54) with some modifications. Bri efl y, HEK293T cel ls wer e
trypsinized (Biological Indust ri es), washed in PBS (Sigma-Aldrich) and then suspended in PBS containing
protease inhibitor cocktail (Roche). The suspended cells were then divided into two Eppendorf tubes and
were treated with either compound or DMSO (Sigma-Aldrich) for 1h at 37 °C with shaking. Following
treatment, each sample was divided into PCR tubes (100µL/tube) and subjected to a temperature gradient
(ranging fr om 63 to 80 °C) for 3 minutes. Cell lysates we r e obtained by 3- cycles of freeze- t ha w using li qui d
nitrogen and a thermal bl ock set to 25 °C. Samples were then centrifuged at 15,000rpm at 4 °C f or 20min a nd
were subsequently analyzed by Western Blot of QR2 (1:100, Santa Cruz; sc-271665). The isothermal
concentration response fingerprint (ITDRF) experiments were done using a constant temperature of 73 °C.
Band intensities were normalized to the highest concentration and SOD1 levels (1:200, Santa Cruz; sc -
as §6

THLE-2 cells = assay: ATP depletion cell toxicity assay (CellTiter Glo), 72 h; settings: for cell viability, Cell-Titer-Glo (replicates): THLE2, 72 hour, in % (unit assumed); for LD50, cell viability (Cell-Titer-Glo): THLE2 cells, 72 hour incubation
Description: H2DCFDA ROS assay was carried out according to established protocols, with some adjustment (Supplemental Methods) ([6]). Cell toxicity was measured via ATP depletion (CellTiter Glo, Promega) in THLE-2 cells (ATCC, CRL-2706), following 72 hours of exposure to the test compounds, and cell viability was assessed using XTT assay (Biological Industries) according to manufacturers protocols. CETSA was performed as previously described ([53]) with some modifications, using QR2 (Santa Cruz, sc-271665) and SOD1 (Santa Cruz, sc-17767) antibodies. SDS-PAGE and immunoblot imaging were carried out as previously described ([55]), using Tubulin (Sigma-Aldrich, SAB4500087), QR2 (Santa Cruz, sc-271665), NDUFA9 (AbCam, ab14713) and CD73 (Cell Signaling Technology, D7F9A) antibodies.
with a 100 µM as upper limit, for 72 h. […]
as §5, §6

SMILES | cell viability, XTT (replicates) (HEK293 cells; 3h, inhibitor 2e-8 M) | cell viability, XTT (replicates) (HEK293 cells; 3h, inhibitor 2e-7 M) | cell viability, XTT (replicates) (HEK293 cells; 3h, inhibitor 2e-6 M) | cell viability, XTT (replicates) (HEK293 cells; 3h, inhibitor 2e-5 M) | cell viability, XTT (replicates) (HEK293 cells; 24h, inhibitor 2e-8 M) | cell viability, XTT (replicates) (HEK293 cells; 24h, inhibitor 2e-7 M) | cell viability, XTT (replicates) (HEK293 cells; 24h, inhibitor 2e-6 M) | cell viability, XTT (replicates) (HEK293 cells; 24h, inhibitor 2e-5 M) | pEC50 (QR2 expressed in HEK293T) | QR2 stabilization signal, ITDRF (replicates) (QR2 expressed in HEK293T; M -5) | QR2 stabilization signal, ITDRF (replicates) (QR2 expressed in HEK293T; M -5.6) | QR2 stabilization signal, ITDRF (replicates) (QR2 expressed in HEK293T; M -5.9) | QR2 stabilization signal, ITDRF (replicates) (QR2 expressed in HEK293T; M -6.2) | QR2 stabilization signal, ITDRF (replicates) (QR2 expressed in HEK293T; M -6.5) | QR2 stabilization signal, ITDRF (replicates) (QR2 expressed in HEK293T; M -6.8) | QR2 stabilization signal, ITDRF (replicates) (QR2 expressed in HEK293T; M -7.1) | QR2 stabilization signal, ITDRF (replicates) (QR2 expressed in HEK293T; M -7.4) | QR2 stabilization signal, ITDRF (replicates) (QR2 expressed in HEK293T; M -7.7) | QR2 stabilization signal, ITDRF (replicates) (QR2 expressed in HEK293T; M -8) | QR2 stabilization signal, ITDRF (replicates) (QR2 expressed in HEK293T; M -9) | further results
Cc1ccc(-c2cn3cccc(C)c3n2)cc1S(=O)(=O)N1CCCC1 [YB-808] | 99.9 and 101.4 and 100.9 and 104.5 | 95.8 and 94.0 and 100.4 and 100.6 | 96.9 and 89.9 and 98.4 and 94.4 | 97.3 and 87.1 and 95.7 and 85.1 | 106.1 and 99.4 and 100.6 | 106.1 and 98.5 and 96.2 | 103.5 and 93.6 and 93.8 | 95.3 and 93.6 and 96.9 | 7.89 | 11691 and 8388 and 13855 | 12608 and 8899 and 18621 | 7977 and 16388 | 13431 and 8528 and 16152 | 13807 and 8233 and 15986 | 13304 and 17220 | 11995 and 8077 and 17779 | 9109 and 4692 and 13840 | 6837 and 3416 and 9444 | 2555 and 1788 and 4021 | 121 and 492 and 263 | cell viability, Cell-Titer-Glo (replicates) (THLE-2 cells; inhibitor 3.9e-7 M): 96.4 and 99.1; cell viability, Cell-Titer-Glo (replicates) (THLE-2 cells; inhibitor 7.8e-7 M): 91.2 and 88.9; cell viability, Cell-Titer-Glo (replicates) (THLE-2 cells; inhibitor 1.5625e-6 M): 98.0 and 97.5; cell viability, Cell-Titer-Glo (replicates) (THLE-2 cells; inhibitor 3.125e-6 M): 92.2 and 93.9; cell viability, Cell-Titer-Glo (replicates) (THLE-2 cells; inhibitor 6.25e-6 M): 94.7 and 93.5; cell viability, Cell-Titer-Glo (replicates) (THLE-2 cells; inhibitor 1.25e-5 M): 90.2 and 79.5; cell viability, Cell-Titer-Glo (replicates) (THLE-2 cells; inhibitor 2.5e-5 M): 79.2 and 86.7; cell viability, Cell-Titer-Glo (replicates) (THLE-2 cells; inhibitor 5e-5 M): 66.4 and 67.9; cell viability, Cell-Titer-Glo (replicates) (THLE-2 cells; inhibitor 0.0001 M): 22.2 and 20.2; LD50, cell viability (Cell-Titer-Glo) (THLE-2 cells): 59.704 µM
Cc1ccc(-c2cn3cccc(C)c3n2)cc1S(=O)(=O)N1CCC(C)CC1 [YB-800] | 110.8 and 103.7 and 108.0 and 102.4 | 102.8 and 101.2 and 105.3 and 105.6 | 102.2 and 105.1 and 102.6 and 106.5 | 89.7 and 90.4 and 98.2 and 92.7 | 107.0 and 100.8 and 108.4 | 107.9 and 100.0 and 108.0 | 108.3 and 101.8 and 109.9 | 104.0 and 96.6 and 104.9 | 7.47 | 4070 and 3736 | 4506 and 4561 and 4867 | 4786 and 3969 and 5175 | 5056 and 3732 and 5224 | 4815 and 4201 and 4200 | 4651 and 3683 and 3564 | 3508 and 2203 and 2700 | 2230 and 1871 and 2017 | 1054 and 942 and 1103 | 655 and 480 and 469 | 36 and 24 and 14 | cell viability, Cell-Titer-Glo (replicates) (THLE-2 cells; inhibitor 3.9e-7 M): 96.3 and 111.4; cell viability, Cell-Titer-Glo (replicates) (THLE-2 cells; inhibitor 7.8e-7 M): 111.0 and 92.8; cell viability, Cell-Titer-Glo (replicates) (THLE-2 cells; inhibitor 1.5625e-6 M): 96.0; cell viability, Cell-Titer-Glo (replicates) (THLE-2 cells; inhibitor 3.125e-6 M): 102.0 and 98.8; cell viability, Cell-Titer-Glo (replicates) (THLE-2 cells; inhibitor 6.25e-6 M): 95.3 and 97.2; cell viability, Cell-Titer-Glo (replicates) (THLE-2 cells; inhibitor 1.25e-5 M): 87.5 and 81.6; cell viability, Cell-Titer-Glo (replicates) (THLE-2 cells; inhibitor 2.5e-5 M): 74.8 and 70.3; cell viability, Cell-Titer-Glo (replicates) (THLE-2 cells; inhibitor 5e-5 M): 54.4 and 53.1; cell viability, Cell-Titer-Glo (replicates) (THLE-2 cells; inhibitor 0.0001 M): 50.5 and 51.2; LD50, cell viability (Cell-Titer-Glo) (THLE-2 cells): 78.401 µM
